Source: patent US12383579B2, “Materials and methods of using an inhibitor of plasminogen activation to treat anastomotic leak” (THE UNIVERSITY OF CHICAGO, priority 2018, dated 2025)

Experiments:
[1] = tested on: RAW macrophages; experiment: Collagen degradation by RAW macrophages given RAW/E44s conditioned media; type: cell-based, murine; conditions: TXA 10 mM, PLG 250 nm, MMP9 1 nM, 4 hours
Procedure: FIG. 16. […] (A), E. faecalis E44 was grown in TY media overnight, and cell-free conditioned media (E44s) was applied to RAW macrophages for 4 hours. PLG, 250 nm, was included in the reaction. […] PLG activation was measured by fluorogenic substrate cleavage. “RAW” column is naïve RAW. *p<0.05, n=6/group. (B), Conditioned media after co-interaction of macrophages with E. faecalis E44 (named RAW/E44s) was applied to naïve RAW macrophages for 4 hours. PLG, 250 nm, and MMP9, 1 nM, were in all reactions. […] “RAW+RAWs” column is naïve macrophages incubated with conditioned media of RAW macrophages (no E. faecalis E44). *p<0.05, n=6/group.
It was then tested whether macrophage collagen degradation activity is enhanced by stimulation with E. faecalis. Conditions from the above experiment (RAW/E44 s) with naïve RAW macrophages were used. PLG and MMP9 were included in the reaction. Degradation of collagen was enhanced by secreted factors produced during the co-interaction of RAW and E44s. […] Finally, to investigate the mechanism of PLG activation by E. faecalis, a parent collagenolytic strain isolated from a patient with AL (V583) was used, along with its mutant derivative (DDGelE/Spr) with secretory collagenolytic factors serine protease (Spr) and gelatinase (GelE) genetically removed. […]

[2] = tested on: collagenolytic E. faecalis; experiment: Quantitative culture of collagenolytic E. faecalis after V583-induced AL

NC[C@H]1CC[C@H](C(=O)O)CC1 [TXA, tranexamic acid]
collagen degradation by macrophages given RAW/E44s conditioned media [1]: attenuated | collagenolytic E. faecalis in anastomotic luminal contents ([2]; POD 3, versus water enema): significantly decreased | CFU/mg collagenolytic E. faecalis in anastomotic tissue ([2]; POD 8, versus water enema): significantly fewer | collagenolytic E. faecalis in anastomotic luminal contents ([2]; POD 8, versus water enema): persisted but did not reach statistical significance | CFU/mg collagenolytic E. faecalis in anastomotic tissue ([2]; day 3, versus water enema): no difference was observed
